In patent publication US9351986B2, “Calicheamicin derivative-carrier conjugates” (priority 2002, dated 2016):
“And” between values parts separate entries of the source, which are not always exact repeats. Equal values may be shown once.

How the values were obtained:
[1] = system: Ramos cells; assay: Disseminated RAMOS B lymphoma in SCID mice, established model; assay type: in vivo
Procedure: (§1) Male SCID mice (CB17 SCID), 20-25 g, were injected with […] through the tail vein (0.2 ml). […] For the day 3 treatment schedule, mice were dosed on days 3, 7, and 11. For the day 9 treatment schedule, mice were dosed on days 9, 13 and 17. […] Mice were monitored daily for the presence of hind limb paralysis at which time they were killed. Seven to 10 mice per treatment group were used. The group average survival time (±SD), median, minimum, and maximum survival times were all calculated. The difference in survival distribution between groups was determined by using a nonparametric Log-rank test with significance reported at the 0.05 level. The survival curves were constructed using the Kaplan-Meier method.
The initial study examined the effect of two different dosing schedules on survival times of the SCID mice with the disseminated lymphoma. The first study looked at initiating drug dosing 3 days after the tumor cells were injected intravenously (developing model), while the second study delayed drug dosing until 9 days post tumor cell injection (established model). […]

[2] = system: RL NHL xenografts; assay: RL NHL xenografts staged to 300-400 mg in nude mice; assay type: in vivo; conditions: for MEAN RELATIVE TUMOR GROWTH: tumor mass at Week 3/day 1
Procedure: Similar studies were carried out using the RL lymphoma model. […] CMC-544 in a dose-dependent manner caused tumors to regress over a 3-week time frame. The minimally effective dose of CMC-544 in the RL lymphoma model was established from statistical analyses of these studies to be 20 μg/kg based on calicheamicin content. There were no deaths in any of these three studies.
The observed anti-tumor efficacy was dose-dependent as expected and there was no difference in the efficacies of either of the two CMC-544 preparations. […] However, it should be emphasized that for each dose of conjugated calicheamicin, the quantity of antibody protein administered in the form of a conjugate was four times higher for CMC-544 made by the CMA-676 process versus that made by the CMC-544 process. Since the calicheamicin content of the targeted conjugate is primarily responsible for causing the anti-tumor effect, it is possible to deliver the required quantity of calicheamicin via the conjugate made by the new procedure using much smaller quantities of the targeting antibody. The increased loading of the conjugate made by the CMC-544 process is, in effect, due to the lack of significant amounts of the low conjugated fraction (LCF).

[3] = system: CD22− CD33+ HL-60 leukemia cells; assay: Flow cytometry binding to HL-60 leukemia cells; conditions: data not shown
From the text: (§2) Purified human polyclonal IgG1 and IgG4 were also used as negative controls.

[4] = system: RAMOS B-cell lymphoma; assay: RAMOS B-cell lymphoma xenograft growth; assay type: in vivo
From the text: In Vivo Cytotoxicity. CMC-544 made by the CMC-544 process was further evaluated in B-cell lymphoma xenografts. In these studies, two B-cell lymphoma tumors, RAMOS and RL, were used. RL lymphoma is a non-Burkitt's NHL-derived cell line whereas RAMOS was originally derived from a Burkitt's lymphoma.

[5] = system: Ramos cells; assay: Disseminated RAMOS B lymphoma in SCID mice, developing model; assay type: in vivo; conditions: Table 8; conjugates 160 μg/kg, rituximab 20 mg/kg ip Q4Dx3 from day 3
Procedure: as §1
The initial study examined the effect of two different dosing schedules on survival times of the SCID mice with the disseminated lymphoma. The first study looked at initiating drug dosing 3 days after the tumor cells were injected intravenously (developing model), while the second study delayed drug dosing until 9 days post tumor cell injection (established model).

[6] = system: CD22 on B cells; assay: Species specificity of CD22 recognition on B cells; assay type: binding, human, murine, rat, canine, porcine, cynomolgus and rhesus; conditions: data not shown
From the text: as §2

[7] = system: Ramos cells; assay: Ramos cell viability, CMC-544 with and without rituximab, 96 hours; assay type: cell-based; conditions: CMC-544 alone, calicheamicin DMH
Procedure: After 96 hours, cell viability was measured by propidium iodide exclusion analyzed by flow cytometry. […] The statistical analysis was conducted using the PROBIT procedure in SAS version 8.2.

[8] = system: RL B lymphoma xenograft; assay: Subcutaneous RL B lymphoma xenograft, CMC-544 versus rituximab and CHOP; assay type: in vivo, Balb/c nude mice; conditions: IP, Q4Dx3, 160 μg/kg calicheamicin equivalents
Procedure: Female, athymic nude mice, 18-22 g, were given total body irradiation (400 rads). […] Three days after irradiation, mice were injected subcutaneously with 107 RL cells in […] ™ (Collaborative Biomedical Products, Belford, Mass., diluted 1:1 in RPMI medium) in the dorsal, right flank. […] The initial day of drug administration was considered day 1. Two additional doses were given on days 5 and 9 (treatment=q4Dx3). […] Tumors were measured at least once a week and calculated as tumor mass (g)=0.5 (tumor width/2) (tumor length). Group means SEM were calculated and compared to the vehicle-treated group for statistical significance using multiple T-tests. Group means were recorded up to 50 days or until either a mouse died (which disrupted the group mean) or the tumor grew too large (>3.5 g) and the mouse had to be euthanized. […] The number of tumor free mice at the end of each study for each treatment group was also recorded. […]
Individual components of the CHOP regimen were used at their respective maximum tolerated doses assessed in nude mice (data not reported) and were as follows: Cyclophosphamide (C) 40 mg/kg IP, doxorubicin (H) 3.3 mg/kg IP, vincristine (O) 0.5 mg/kg IP, and prednisone (P) 0.2 mg/kg PO. […]

[9] = system: large RAMOS lymphoma; assay: Large established RAMOS lymphoma xenografts; assay type: in vivo, nude mice; conditions: days 1, 5 and 9
Procedure: (§3) The ability of CMC-544 made by the new procedure to inhibit growth of large established B-cell lymphoma xenografts using both the RAMOS and RL lymphoma models was also investigated. The tumors were allowed to grow and staged to 1.5 or 2 g of tumor mass after which CMC-544 or an isotype-matched negative control conjugate (CMA-676) were administered intraperitoneally at the dose of 160 μg/kg of conjugated calicheamicin keeping the original schedule of dosing on days 1, 5 and 9.
The same schedule of dosing was shown earlier to cause long lasting regression of small staged tumors (see Table 6).

[10] = system: RL lymphoma; assay: Large established RL lymphoma xenografts; assay type: in vivo, mice
Procedure: as §3
A similar experiment using CMC-544 was carried out in the RL lymphoma model. Intraperitoneal administration of CMC-544 at a dose of 160 μg/kg on a similar schedule as described before caused >90% regression of the pre-existing mass of RL lymphoma within 30 days. […] In a small number of studies not shown here, RL lymphomas that re-grew sporadically after the initial CMC-544-induced regression were retreated with CMC-544 again. […] Thus, the treatment with CMC-544 can be effective against both small and large masses of B-cell lymphomas with the potential for repeat therapy.

[11] = system: CD22mFc; assay: BIACORE biosensor binding analysis of CMC-544 and G5/44; conditions: Table 3
Procedure: Biosensor analyses were carried out using a BIACORE™ 2000 (BIAcore AB, Uppsala, Sweden). CD22mFc was covalently immobilized on the N-hydroxysuccinimide-activated carboxymethyl dextran-coated biosensor chip (CM5) using a standard amine-coupling chemistry at a protein density of approximately 2000 resonance units. Samples of CMC-544 or G5/44 were diluted in the HBS buffer (10 mM HEPES, pH 7.4, containing 150 mM NaCl, 3 mM EDTA and 0.005% polysorbate 20 (v/v)) and injected in the concentration range of 1 to 100 nM over the CD22mFc-coated biosensor chip surface at a flow rate of 30 μl/min for 3 min to allow binding. After the binding phase, dissociation of the bound antibody was monitored by washing the chip with the HBS buffer over a 15 minute period. The antigenic surface was regenerated by washing the Biosensor chip with 15 μl of the regeneration buffer (10 mM NaOH and 200 mM NaCl) for 30 seconds, followed by a stabilization time of 2 minutes before the next cycle. Kinetic constants were calculated by nonlinear least square regression analysis using a 1:1 Langmuir binding curve fitting model and BIAevaluation program (version 3.0, BIAcore). The antigen binding of CMC-544 was evaluated by surface plasmon resonance analysis using CD22mFc covalently immobilized on a biosensor chip.

[12] = system: RL; assay: In vitro growth inhibition of RL B-cell lymphoma line; assay type: cell-based
From the text: (§4) The effect of CMC-544 made by using CMA-676 and CMC-544 processes on the in vitro growth of CD22^+ B-Cell lymphoma cell lines, RL, Daudi, Raji and Ramos, were compared. An isotype-matched calicheamicin conjugate targeted at human CD33 (CMA-676) was used to reflect antigen-non-specific effects of the conjugate. […] CD22-mediated delivery of calicheamicin to the CD22^+ cells was at least 10 times more efficient in killing the target cells than the unconjugated drug itself. […] It is apparent from Table 4 that conjugate made by the CMC-544 conjugation process can generate equivalent cytotoxic effect at lower antibody concentrations than conjugate made by the CMA-676 conjugation process.

[13] = system: Ramos; assay: In vitro growth inhibition of Ramos B-cell lymphoma line; assay type: cell-based, human
From the text: as §4

[14] = system: Raji; assay: In vitro growth inhibition of Raji B-cell lymphoma line; assay type: cell-based
From the text: as §4

[15] = system: Daudi; assay: In vitro growth inhibition of Daudi B-cell lymphoma line; assay type: cell-based; conditions: Daudi #1
From the text: as §4

[16] = Table 8, conjugates 160 μg/kg, rituximab 20 mg/kg ip Q4Dx3 from day 9
[17] = Table 9, high dose: CMC-544 160 μg/kg, rituximab 20 mg/kg, alone or combined
[18] = Table 10, high dose: CMC-544 160 μg/kg, rituximab 20 mg/kg, alone or combined
[19] = Table 10, low dose: CMC-544 40 μg/kg, rituximab 5 mg/kg, alone or combined
[20] = Table 10, medium dose: CMC-544 80 μg/kg, rituximab 10 mg/kg, alone or combined

Sequence of CD22mFc (P20273 20-240 limits assumed): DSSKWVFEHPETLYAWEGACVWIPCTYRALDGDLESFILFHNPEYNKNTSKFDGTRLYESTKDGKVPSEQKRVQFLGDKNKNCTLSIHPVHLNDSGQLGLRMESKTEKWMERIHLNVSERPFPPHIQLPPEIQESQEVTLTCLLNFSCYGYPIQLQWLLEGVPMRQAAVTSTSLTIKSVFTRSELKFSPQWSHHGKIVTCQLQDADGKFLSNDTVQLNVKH

Substance: CMC-544: G5/44-NAc-gamma-calicheamicin DMH AcBut conjugate; monomeric calicheamicin derivative/humanized anti-CD22 antibody (G5/44)
- mice still surviving at 125 days ([1]; CMC-544 40 μg/kg): 90%
- Average Survival Time [1, 16]: 83.5 days
- Median Survival Time [1, 16]: 76.5 days
- Minimum Survival Time [1, 16]: 34.0 days
- Maximum Survival Time [1, 17]: >100.0 days
- Median Survival Time [1, 17]: 34.5 days
- Minimum Survival Time [1, 17]: 27.0 days
- Average Survival Time ([1]; Table 9 initial combination study, high dose: CMC-544 160 μg/kg, rituximab 20 mg/kg, alone or combined): 58.5 days
- Average Survival Time [1, 18]: 85 days and 85.22 days
- Maximum Survival Time [1, 18]: 125.00 days
- Median Survival Time [1, 18]: 82.00 days
- Minimum Survival Time [1, 18]: 35.00 days
- Average Survival Time [1, 19]: 118.90 days
- Maximum Survival Time [1, 19]: 125.00 days
- Median Survival Time [1, 19]: 125.00 days
- Minimum Survival Time [1, 19]: 64.00 days
- Average Survival Time [1, 20]: 118.22 days
- Maximum Survival Time [1, 20]: 125.00 days
- Median Survival Time [1, 20]: 125.00 days
- Minimum Survival Time [1, 20]: 71.00 days
- tumor regression at higher doses ([2]; 60-320 μg/kg): almost complete regression of RL lymphoma
- minimally effective dose in the RL lymphoma model ([2]; based on calicheamicin content, from statistical analyses of three studies): 0.02 mg/kg
- % T/C ([2]; calicheamicin dose 20 μg/kg): 43%
- MEAN RELATIVE TUMOR GROWTH ([2]; calicheamicin dose 20 μg/kg): 2.87
- % T/C ([2]; calicheamicin dose 40 μg/kg): 20%
- MEAN RELATIVE TUMOR GROWTH ([2]; calicheamicin dose 40 μg/kg): 1.34
- % T/C ([2]; calicheamicin dose 60 μg/kg): 9%
- MEAN RELATIVE TUMOR GROWTH ([2]; calicheamicin dose 60 μg/kg): 0.58
- % T/C ([2]; calicheamicin dose 80 μg/kg): 8%
- MEAN RELATIVE TUMOR GROWTH ([2]; calicheamicin dose 80 μg/kg): 0.54
- % T/C ([2]; calicheamicin dose 160 μg/kg): 3%
- MEAN RELATIVE TUMOR GROWTH ([2]; calicheamicin dose 160 μg/kg): 0.21
- % T/C ([2]; calicheamicin dose 320 μg/kg): 1%
- MEAN RELATIVE TUMOR GROWTH ([2]; calicheamicin dose 320 μg/kg): 0.10
- deaths ([2]; three independent experiments, 20-320 μg/kg): no deaths
- binding to HL-60 leukemia cells [3]: neither CMC-544 nor G5/44 demonstrated any binding
- inhibition of growth of RAMOS B-cell lymphoma ([4]; FIG. 18): efficacious in inhibiting, in a dose-dependent manner, the growth of RAMOS B-cell lymphoma
- Average Survival Time [5]: 41 days and 41.0 days
- Maximum Survival Time [5]: 60.0 days
- Median Survival Time [5]: 38.0 days
- Minimum Survival Time [5]: 32.0 days
- recognition of CD22 on B cells of different species [6]: specifically recognizes CD22 on human B cells, but not on murine, rat, canine, porcine or primate (cynomolgus and rhesus) B cells
- median inhibitory concentration (IC50) [7]: 0.029 ng/mL
- antitumor effect [8]: complete and lasted throughout the experimental period
- tumor-free mice by day 20 ([9]; 160 μg/kg conjugated calicheamicin ip, tumors staged to 1.5 or 2 g): 3 out of 4
- re-growth of regressed lymphoma up to day 50 ([9]; 160 μg/kg ip): did not indicate any re-growth
- mice with re-growth of the tumors by day 45 ([10]; 160 μg/kg ip): 2
- regression of the pre-existing mass of RL lymphoma ([10]; 160 μg/kg ip, within 30 days): > 90%
- response of re-grown RL tumors to a second course ([10]; studies not shown): still responsive to the second course of the treatment with CMC-544 and regressed again

Substance: G5/44: CDR-grafted humanized antibody directed against cell surface antigen CD22, IgG4 isotype
- KA [11]: 7.9e+09 M⁻¹
- Ka [11]: 220000 M⁻¹ s⁻¹
- Kd [11]: 2.8e-05 s⁻¹
- binding to HL-60 leukemia cells [3]: neither CMC-544 nor G5/44 demonstrated any binding
- IC50 of antibody ([12]; RL #1): >100 µg/mL
- IC50 of antibody ([12]; RL #2): >100 µg/mL
- effect of unconjugated antibody on tumor growth ([4]; 10 mg/kg intraperitoneal, subcutaneous xenografts): no effect on tumor growth
- IC50 of antibody ([13]; Ramos #1): >100 µg/mL
- IC50 of antibody ([13]; Ramos #2): >100 µg/mL
- IC50 of antibody ([14]; Raji #1): >100 µg/mL
- IC50 of antibody ([14]; Raji #2): >100 µg/mL
- IC50 of antibody [15]: >100 µg/mL
